Source: US20240376138A1, “Crystal Forms, Preparation Method And Application Of Aryl Phosphine Oxide Compound” (Chengdu Di'Ao Jiuhong Pharmaceutical Factory, priority 2021, published 2024)
Marks after values point to notes of the source that are not given here.

Key:
[1] = Stability test 1: open solvent atmosphere, XRPD; format: physicochemical; conditions: room temperature
[2] = Solubility test; format: physicochemical; conditions: Solution with pH = 6.8, 25° C.±2° C., dihydrate
[3] = High temperature and illumination stability test of crystal forms 1-3; format: physicochemical
Excerpt: The stabilities of crystal form 2 and crystal form 3 under high temperature, illumination and long-term conditions were investigated.

[4] = Comparative experiment of hygroscopicity (Chinese Pharmacopoeia 2020); format: physicochemical; conditions: dihydrate
Excerpt: The description of hygroscopic characteristics and the definition of hygroscopic weight gain are as follows: • Deliquescence: absorbs sufficient amount of water to form a liquid; • Very hygroscopic: the weight gain by hygroscopy is not less than 15%; • Hygroscopic: the weight gain by hygroscopy is less than 15% but not less than 2%; • Slightly hygroscopic: the weight gain by hygroscopy is less than 2% but not less than 0.2%; and
Not or almost not hygroscopic: the weight gain by hygroscopy is less than 0.2% from hygroscopicity.

[5] = Variable temperature XRPD of crystal form 1; format: physicochemical
Experimental: The crystalline form 1 was tested on a hot-stage XRPD detection instrument to test the XRPD patterns under different temperature conditions, as shown in FIG. 8.

[6] = Stability test 3: long-term and accelerated conditions; format: physicochemical
[7] = system: BaF3 EML-4-ALK-L1196M xenograft tumor; assay: Pharmacodynamic experiment in vivo, subcutaneous xenograft model; parameters: species or system BALB/c nude mouse
Experimental: The model used in this trial was an engineered BALB/c nude mouse subcutaneous xenograft model of BaF3 EML-4-ALK-L1196M cells. Suspension culture of engineered BaF3 cells were carried out in vitro. […] Cell passage was processed twice a week. When the number of cells reached the requirement, the cells were collected, counted, diluted into a tumor cell suspension with a concentration of 1×10^7/ml with PBS, and carried to the animal room in an ice box for direct injection and inoculation. A 1 mL syringe was used to take the above-mentioned prepared tumor cell suspension with a concentration of 1×10^7/ml, and the tumor cell suspension was injected subcutaneously into the left forelimb armpit of the dorsal side of the mouse, 0.25 mL for each inoculation site. When the average volume of tumors reached about 160 mm^3, the drug was administered for each group, 15 mice in the vehicle group and 10 mice in each of the other administration groups.
Mode and frequency of administration: oral gavage administration, the volume of administration was 10 mL/kg, and the model group was given an equal volume of vehicle. It was administered 1 time a day for 14 consecutive days.
The mental, active, eating and other general conditions of the mice were observed every day, and the body weight was measured 3 times a week, and the short diameter (a) and long diameter (b) of the tumor of each mouse were measured with vernier calipers 3 times a week, and the tumor volume was calculated according to the formula (a^2×b)/2. The relative tumor volume (RTV) was calculated from the measured calculated tumor volume, RTV=Vt/V0. Wherein V0 was the tumor volume at randomization (i.e., d0) and Vt was the tumor volume at each measurement (i.e., dn). The relative tumor proliferation rate of anti-tumor activity evaluation index was calculated according to the following formula: relative tumor proliferation rate T/C (%): […]
(Note: TRTV: RTV in the treatment group; CRTV: RTV in the model control group. According to the evaluation criteria for efficacy in the “Technical Guidelines for Non-clinical Research of Cytotoxic Antitumor Drugs” issued by the National Medical Products Administration of China, T/C %≤40% is effective).

[8] = Stability test 2: different temperature and humidity conditions, XRPD; format: physicochemical
[9] = Vacuum drying stability test; format: physicochemical
[10] = High temperature (50° C.), Day 10, dihydrate
[11] = High temperature (50° C.), Day 30, dihydrate
[12] = Illumination (illuminance: 5000Lx), Day 10, dihydrate
[13] = Illumination (illuminance: 5000Lx), Day 30, dihydrate
[14] = 6 months under long-term and accelerated conditions
[15] = 30 mg/kg oral gavage 1 time a day, Day 3
[16] = 30 mg/kg oral gavage 1 time a day, Day 5
[17] = 30 mg/kg oral gavage 1 time a day, Day 7
[18] = 30 mg/kg oral gavage 1 time a day, Day 10
[19] = 30 mg/kg oral gavage 1 time a day, Day 12
[20] = 30 mg/kg oral gavage 1 time a day, Day 14
[21] = 30 mg/kg oral gavage once a day, D14
[22] = 40 mg/kg oral gavage 1 time a day, Day 3
[23] = 40 mg/kg oral gavage 1 time a day, Day 5
[24] = 40 mg/kg oral gavage 1 time a day, Day 7
[25] = 40 mg/kg oral gavage 1 time a day, Day 10
[26] = 40 mg/kg oral gavage 1 time a day, Day 12
[27] = 40 mg/kg oral gavage 1 time a day, Day 14
[28] = 40 mg/kg oral gavage once a day, D14

Structure (SMILES): COc1cc(N2CCC(N3CCN(C)CC3)CC2)c(C)cc1Nc1ncc(Br)c(Nc2ccc(C)cc2P(C)(C)=O)n1 [Crystal form 1, (2-((5-bromo-2-((2-methoxy-5-methyl-4-(4-(4-methylpiperazin-1-yl)piperidin-1-yl)phenyl)amino)pyrimidin-4-yl)amino)-5-methylphenyl)dimethylphosphorus oxide dihydrate]
- Analysis of result (XRPD) Day 4 ([1]; Acetone atmosphere): Crystal form 1
- Analysis of result (XRPD) Day 6 ([1]; Acetone atmosphere): Crystal form 1
- Analysis of result (XRPD) Day 4 ([1]; Ethanol atmosphere): Crystal form 1
- Analysis of result (XRPD) Day 6 ([1]; Ethanol atmosphere): Crystal form 1
- Analysis of result (XRPD) Day 4 ([1]; Ethyl acetate atmosphere): Crystal form 1
- Analysis of result (XRPD) Day 6 ([1]; Ethyl acetate atmosphere): Crystal form 1
- Analysis of result (XRPD) Day 4 ([1]; Tetrahydrofuran atmosphere): Crystal form 1
- Analysis of result (XRPD) Day 6 ([1]; Tetrahydrofuran atmosphere): Crystal form 1
- Solubility for 24 h [2]: 3260 µg/mL
- Traits ([3]; Day 0, dihydrate): off-white
- purity ([3]; Day 0, dihydrate): purity: 99.66%
- total impurities ([3]; Day 0, dihydrate): impurities: 0.34%
- the number of impurities above the reporting limit ([3]; Day 0, reporting limit per ICHQ3B): limit is 4 total
- Traits [3, 10]: off-white
- purity [3, 10]: purity: 99.65%;
- the number of impurities above the reporting limit [3, 10]: limit is 5; total
- total impurities [3, 10]: impurities: 0.35%
- Traits [3, 11]: off-white
- purity [3, 11]: purity: 99.53%;
- the number of impurities above the reporting limit [3, 11]: limit is 6; total
- total impurities [3, 11]: impurities: 0.47%
- Traits ([3]; Illumination (illuminance: 5000Lx), Day 10 (Table 18-1), dihydrate): off-white
- Traits [3, 12]: off-white
- purity [3, 12]: purity: 99.65%;
- the number of impurities above the reporting limit [3, 12]: limit is 5; total
- total impurities [3, 12]: impurities: 0.35%
- Traits [3, 13]: off-white
- purity [3, 13]: purity: 99.60%;
- the number of impurities above the reporting limit [3, 13]: limit is 6; total
- total impurities [3, 13]: impurities: 0.40%
- Hygroscopicity ([4]; class by weight gain after 24 h): Not or almost not hygroscopic (the weight gain by hygroscopy is less than 0.2% from hygroscopicity)
- Weight gain % after 24 h ([4]; hygroscopicity test, 24 h): 0.16%
- crystal form on hot-stage XRPD ([5]; 50° C.): remained unchanged
- crystal form on hot-stage XRPD ([5]; 80° C. and 120° C.): lost two moles of crystal water
- maximum single impurity [6, 14]: ≤ 0.07%
- total impurities after 6 months of placement compared with Day 0 [6, 14]: had not increased
- Traits ([6]; Acceleration (40° C. ± 2° C., 75% RH ± 10% RH), Day 0): off-white
- Traits ([6]; Acceleration (40° C. ± 2° C., 75% RH ± 10% RH), Month 6): off-white
- Crystal form (XRPD) ([6]; Acceleration (40° C. ± 2° C., 75% RH ± 10% RH, exposed to air and away from light), Day 0): form 1
- Crystal form (XRPD) ([6]; Acceleration (40° C. ± 2° C., 75% RH ± 10% RH, exposed to air and away from light), Day 10): form 1
- Crystal form (XRPD) ([6]; Acceleration (40° C. ± 2° C., 75% RH ± 10% RH, exposed to air and away from light), Month 6): form 1
- Traits ([6]; Long-term (25° C. ± 2° C., 65% RH ± 10% RH), Day 0, dihydrate): off-white
- Traits ([6]; Long-term (25° C. ± 2° C., 65% RH ± 10% RH), Month 6): off-white
- Crystal form (XRPD) ([6]; Long-term (25° C. ± 2° C., 65% RH ± 10% RH, exposed to air and away from light), Day 0): form 1
- Crystal form (XRPD) ([6]; Long-term (25° C. ± 2° C., 65% RH ± 10% RH, exposed to air and away from light), Day 10): form 1
- Crystal form (XRPD) ([6]; Long-term (25° C. ± 2° C., 65% RH ± 10% RH, exposed to air and away from light), Month 6): form 1
- Tumor volume ([7]; 30 mg/kg oral gavage 1 time a day, Day 0): 160 mm^3
- Relative tumor proliferation rate T/C [7, 15]: 28.53▴▴ %
- Tumor volume [7, 15]: 102 mm^3
- Relative tumor proliferation rate T/C [7, 16]: 16.41▴▴ %
- Tumor volume [7, 16]: 89 mm^3
- Relative tumor proliferation rate T/C [7, 17]: 8.23▴▴ %
- Tumor volume [7, 17]: 75 mm^3
- Relative tumor proliferation rate T/C [7, 18]: 6.61▴▴ %
- Tumor volume [7, 18]: 91 mm^3
- Relative tumor proliferation rate T/C [7, 19]: 6.34▴▴ %
- Tumor volume [7, 19]: 109 mm^3
- Relative tumor proliferation rate T/C [7, 20]: 4.85▴▴ %
- Tumor volume [7, 20]: 101 mm^3
- Tumor volume [7, 21]: 101 mm^3
- relative tumor proliferation rate T/C % [7, 21]: 4.85%
- Tumor volume ([7]; 40 mg/kg oral gavage 1 time a day, Day 0): 159 mm^3
- Relative tumor proliferation rate T/C [7, 22]: 23.88▴▴ %
- Tumor volume [7, 22]: 83 mm^3
- Relative tumor proliferation rate T/C [7, 23]: 10.09▴▴ %
- Tumor volume [7, 23]: 52 mm^3
- Relative tumor proliferation rate T/C [7, 24]: 5.93▴▴ %
- Tumor volume [7, 24]: 49 mm^3
- Relative tumor proliferation rate T/C [7, 25]: 4.45▴▴ %
- Tumor volume [7, 25]: 60 mm^3
- Relative tumor proliferation rate T/C [7, 26]: 3.28▴▴ %
- Tumor volume [7, 26]: 55 mm^3
- Relative tumor proliferation rate T/C [7, 27]: 2.34▴▴ %
- Tumor volume [7, 27]: 49 mm^3
- Tumor volume [7, 28]: 49 mm^3
- relative tumor proliferation rate T/C % [7, 28]: 2.34%
- effect on the growth of BaF3 EML-4-ALK-L1196M xenograft tumor ([7]; oral gavage once a day for 14 days, crystal form 1 30 and 40 mg/kg, compound 1 of WO2021073498A1 30.2 and 40.2 mg/kg): significantly inhibit the growth
- Analysis of result of Day 4 (XRPD) ([8]; 25° C.-60% RH): Crystal form 1
- Analysis of result of Day 6 (XRPD) ([8]; 25° C.-60% RH): Crystal form 1
- Analysis of result of Day 11 (XRPD) ([8]; 25° C.-60% RH): Crystal form 1
- Analysis of result of Day 4 (XRPD) ([8]; 40° C.-75% RH): Crystal form 1
- Analysis of result of Day 6 (XRPD) ([8]; 40° C.-75% RH): Crystal form 1
- Analysis of result of Day 11 (XRPD) ([8]; 40° C.-75% RH): Crystal form 1
- Analysis of result of Day 4 (XRPD) ([8]; RT-12% RH): Crystal form 1
- Analysis of result of Day 6 (XRPD) ([8]; RT-12% RH): Crystal form 1
- Analysis of result of Day 11 (XRPD) ([8]; RT-12% RH): Crystal form 1
- Analysis of result of Day 4 (XRPD) ([8]; RT-58% RH): Crystal form 1
- Analysis of result of Day 6 (XRPD) ([8]; RT-58% RH): Crystal form 1
- Analysis of result of Day 11 (XRPD) ([8]; RT-58% RH): Crystal form 1
- Analysis of result of Day 4 (XRPD) ([8]; RT-97% RH): Crystal form 1
- Analysis of result of Day 6 (XRPD) ([8]; RT-97% RH): Crystal form 1
- Analysis of result of Day 11 (XRPD) ([8]; RT-97% RH): Crystal form 1
- crystal form after vacuum drying ([9]; vacuum dried at 35° C.): had not been transformed
- moisture content after vacuum drying ([9]; vacuum drying at 35° C. for 24 h): 5.26%
